Legend:
SHP2 = molecular target: T1, SHP2 (Homo sapiens, UniProt Q06124); assay: Cellular thermal shift assay (CETSA), SHP2 immunoblot; assay type: binding; settings: 100 μM CNBCA, cell lysate
T1 construct: endogenous in cells
T1 sequence (Q06124 1-593): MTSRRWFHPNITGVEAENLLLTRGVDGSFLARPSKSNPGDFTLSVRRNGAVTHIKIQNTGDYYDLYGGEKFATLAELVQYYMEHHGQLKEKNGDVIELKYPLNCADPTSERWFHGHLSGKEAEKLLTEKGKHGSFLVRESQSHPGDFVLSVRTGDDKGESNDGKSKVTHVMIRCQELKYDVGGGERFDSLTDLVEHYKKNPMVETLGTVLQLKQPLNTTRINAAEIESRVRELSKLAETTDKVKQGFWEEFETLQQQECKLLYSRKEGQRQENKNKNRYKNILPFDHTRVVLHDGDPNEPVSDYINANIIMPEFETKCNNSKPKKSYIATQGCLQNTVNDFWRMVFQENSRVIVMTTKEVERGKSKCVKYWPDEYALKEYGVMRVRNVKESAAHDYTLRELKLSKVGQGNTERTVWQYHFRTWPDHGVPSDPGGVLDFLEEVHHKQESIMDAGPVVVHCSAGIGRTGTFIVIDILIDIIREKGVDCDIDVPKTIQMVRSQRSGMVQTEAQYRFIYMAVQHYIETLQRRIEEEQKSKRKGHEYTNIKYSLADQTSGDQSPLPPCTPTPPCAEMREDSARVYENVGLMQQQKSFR
Description: First, we used the cellular thermal shift assay (CETSA) to show whether CNBCA binds to endogenous full-length SHP2 under cellular contexts. The CETSA assay is based on the principle that specific inhibitors bind to a target protein and confer relative stability from heat-induced denaturation and precipitation when compared to a nontarget protein present in the same milieu.[34] Accordingly, we performed CETSA to test the effect of CNBCA on the SHP2 protein stability and compared it with the nontarget PTP1B protein as described in the materials and methods.
After heat treatment, supernatants were analyzed by immunoblotting (IB) for SHP2 and the nontarget phosphatase PTP1B. […] To provide semiquantitative data, band densities of both SHP2 and PTP1B were measured and presented as bar graph. […] On the other hand, the nontarget protein PTP1B was reduced to approximately 50% at 49 °C, to 25% at 55 °C, and to less than 10% at 58 °C (Figure 3B and D).
For the CETSA study, total protein extracts (TPE) prepared from two breast cancer cells, the triple-negative MDA-MB468 and the HER2-positive JIMT-1 cells, were used. Briefly, TPE from the two cell lines were cleared by centrifugation, mixed with CNBCA at 100 μM concentration (the maximum amount used in the IC50 studies), and incubated for 10 min at room temperature to allow binding. The mixture was then divided into 100 μL aliquots, treated with heat for 10 min at different temperatures, ranging from 37 to 64 °C that differ by 3 °C intervals, cooled on ice for 10 min, centrifuged at 20,000g for 20 min to remove precipitated proteins, and the supernatants analyzed by immunoblotting (IB) for SHP2 and the nontarget PTP, PTP1B. Aliquots that were mixed with CNBCA, but not treated with heat were used as positive controls for comparison.

MDA-MB468 cells [1] = assay: Basal pAkt and pERK1/2 signaling by immunoblotting in MDA-MB468 cells; assay type: cell-based; settings: Homo sapiens, MDA-MB-468; MDA-MB468, 48 h treatment, band density pAkt and pERK1/2; read-out: IC50 for SHP2 mediated Akt and ERK1/2 activation
Description: Since SHP2 is an essential mediator of mitogenic and cell survival signaling in breast cancer cells, we determined the effect of CNBCA treatment on activation of ERK1/2 and Akt in the HER2-positive BT474 and in the triple-negative MDA-MB468 cell lines. Cells growing in 2D culture were treated with varying concentrations of CNBCA, ranging from 0.250 to 2.0 μM, for 48 h, and total cell lysates were analyzed by immunoblotting (IB) with antibodies that recognize the activated forms of ERK1/2 (pERK1/2) and Akt (pAkt).

MDA-MB468 cells [2] = assay: Mammosphere formation in suspension culture, MDA-MB468; assay type: cell-based; settings: MDA-MB468, 500 nM, 10 days, versus vehicle
Description: (§1) Since SHP2 is essential for the growth and transformation of BC cells,[8],[9],[11] we determined the effect of SHP2 inhibition with CNBCA in 2D and 3D culture systems. For the effect on cell growth, BC cells (BT474 and MDA-MB468) were seeded in 2D culture and treated with a single concentration of CNBCA (500 nM), the concentration that provided a 50% inhibition of SHP2 mediated signaling in BT474 cells. Images were collected at the start and every 24 h for a total of 72 h (3 days). […] For effect on anchorage independent growth, approximately 10^6 cells were seeded in soft agar as described previously,[24] and treated with CNBCA at 500 nM concentration for 10 days with refeeding and adjustment of compound concentration. […] Finally, the effect of CNBCA on cancer stem cell properties was determined by the suspension assay, in which only cells with stem-like properties only can grow and form mammospheres.[7],[24],[36] Approximately 10^6 cells were seeded in nonadherent 6 cm plates and treated with CNBCA (500 nM) for 10 days with complementation of media and drug concentration.
To further evaluate the anti-breast cancer cell effect of CNBCA, we treated cells seeded in a suspension culture known as the mammosphere assay. In this assay, cells with cancer stem cell properties can grow and form sphere-like cellular aggregates known as mammospheres.[7],[38] […]

BT474 cells = assay: Cell growth in 2D culture, BT474; assay type: cell-based; settings: BT474, 500 nM, 72 h; vehicle treated cells grew to confluency
Description: as §1

MDA-MB468 cells [3] = assay: Cell growth in 2D culture, MDA-MB468; assay type: cell-based; settings: MDA-MB468, 500 nM, 72 h; vehicle treated cells grew to confluency
Description: as §1

CCCCCCCCCOc1ccc(-c2ccc(C(=O)O)cc2)cc1CCCC(=O)O [CNBCA, 3′-(3-carboxypropyl)-4′-(nonyloxy)-[1,1′-biphenyl]-4-carboxylic acid]
SHP2 stabilized in solution (band density) (SHP2; heat 49 °C 10 min): ~100% | SHP2 stabilized in solution (band density) (SHP2; heat 52 °C 10 min): 95% | SHP2 stabilized in solution (band density) (SHP2; heat 55 °C 10 min): 70% | SHP2 stabilized in solution (band density) (SHP2; heat 58 °C 10 min): 45% | IC50 (MDA-MB468 cells [1]): ~1000 nM | mammosphere formation (MDA-MB468 cells [2]): fewer and smaller mammospheres | cell growth in 2D culture (BT474 cells): half-confluent | cell growth in 2D culture (MDA-MB468 cells [3]): half-confluent
